Experimental data reported in patent US20040024024A1, “Aromatic sulfone hydroxamates and their use as protease inhibitors” (priority 2001, published 2004).

Assays:
Assay in all cases: In vitro MMP inhibition, IC50 determination (fluorogenic substrate I)
Assay type in all cases: biochemical
Settings in all cases: value outside parenthesis
Human recombinant MMP-9 = biological target: T1, Human recombinant MMP-9 (Homo sapiens, UniProt P14780)
T1 construct: made in house; host or cells: MMP-9-transfected HT1080 cells (spent media)
Protocol: (§1) Several hydroxamates and salts thereof were analyzed in in vitro assays to determine their ability to inhibit the MMP cleavage of peptide substrates. Inhibition (Ki) and IC50 constants were calculated from the assayed hydroxamate-MMP interactions.
(§2) Human recombinant MMP-1, MMP-2, MMP-9, MMP-13, and MMP-14 were used in this assay. All enzymes were prepared in Assignee's laboratories following usual laboratory procedures. Protocols for the preparation and use of these enzymes are available in the scientific literature. See, e.g., Enzyme Nomenclature (Academic Press, San Diego, Calif., 1992) (and the citations therein). See also, Frije et al., J. Biol. Chem., 26(24), 16766-73 (1994).
The MMP-9 proenzyme was purified by gelatin Sepharose chromatography from spent media of MMP-9-transfected HT1080 cells provided by Dr. Howard Welgus of Washington University (St. Louis, Mo.).
(§3) All MMPs were activated using 4-aminophenylmercuric acetate (“APMA”, Sigma Chemical, St. Louis, Mo.) or trypsin. MMP-9 also was activated using human recombinant MMP-3 (purified in Assignee's laboratory following standard cloning and purification techniques).
(§4) Two fluorogenic, methoxycoumarin-containing polypeptide substrates were used in the MMP inhibition assays:
(§5) MCA-ProLeuGlyLeuDpaAlaArgNH2 (I)
(§6) Here, “Dpa” is 3-(2,4-dinitrophenyl)-L-2,3-diaminopropionyl group, and “MCA” is 7-methoxycoumarin-4-yl acetyl. Substrate (I) was purchased from Baychem (Redwood City, Calif.), and substrate II was prepared Assignee's laboratory. Substrate I was used in the IC50 determination assays, while substrate II was used in the Ki determination assays. In the absence of MMP inhibitory activity, either substrate is cleaved at the Gly-Leu peptide bond. This cleavage separates the highly fluorogenic peptide from the 2,4-dinitrophenyl quencher, thus resulting in increase of fluorescent intensity.
(§7) The stock solutions of the assayed hydroxamates (or salts thereof) were prepared in 1% dimethyl sulfoxide (DMSO). These stock solutions were diluted in Buffer A (100 mM Tris-HCl, 100 mM NaCl, 10 mM CaCl2, 0.05% polyoxyethylene 23 lauryl ether, pH 7.5) to obtain solutions with different hydroxamate concentrations, i.e., assay solutions with different concentrations of the assayed MMP inhibitory compound. The experiment controls contained the same amount of Buffer A/DMSO as the assayed sample, but contained no hydroxamate (or salt thereof).
(§8) The assays from which the IC50 determinations were made were performed as follows. The MMPs were activated with either trypsin or APMA (4-aminophenylmercuric acetate, Sigma Chemical, St. Louis, Mo.). The assayed hydroxamate samples were, incubated in Microfluorrm White Plates (Dynatech, Chantilly, VA) and analyzed on a Perkin Elmer L550 plate reader (Norwalk, Conn.). The excitation wavelength was 328 nm, and the emission wavelength—415 nm. All samples (assayed hydroxamates and controls) were incubated in separate plates at room temperature in the presence of 4 μM of MMP substrate (I). As stated in the previous paragraph, samples containing varying concentrations of the same assayed hydroxamate were prepared. Inhibition was measured as a reduction in fluorescent intensity as a function of MMP inhibitor concentration.

Human recombinant MMP-1 = biological target: T2, Human recombinant MMP-1 (Homo sapiens, UniProt P03956)
T2 construct: made in house; host or cells: MMP-1-transfected HT-1080 cells (spent media)
T2 sequence (P03956 100-469): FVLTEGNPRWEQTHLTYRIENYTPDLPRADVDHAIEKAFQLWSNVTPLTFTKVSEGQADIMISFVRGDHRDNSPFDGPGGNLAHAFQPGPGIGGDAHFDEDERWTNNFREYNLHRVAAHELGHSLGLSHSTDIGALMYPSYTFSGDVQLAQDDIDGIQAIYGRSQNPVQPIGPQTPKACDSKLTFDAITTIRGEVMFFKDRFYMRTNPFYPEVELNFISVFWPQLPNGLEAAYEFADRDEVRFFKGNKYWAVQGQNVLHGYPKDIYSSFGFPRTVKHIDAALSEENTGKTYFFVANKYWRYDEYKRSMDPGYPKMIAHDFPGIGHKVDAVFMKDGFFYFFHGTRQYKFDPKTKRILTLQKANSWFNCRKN
Protocol: as §1, §2
The MMP-1 proenzyme was purified from the spent media of MMP-1-transfected HT-1080 cells provided by Dr. Harold Welgus of Washington University (St. Louis, Mo.). The protein was purified on a zinc chelating column.
as §3, §4, §5, §6, §7, §8

Human recombinant MMP-13 = biological target: T3, Human recombinant MMP-13 (Homo sapiens, UniProt P45452)
T3 construct: made in house; host or cells: baculovirus / insect cells
Procedure, shortened: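 Fluorescence at 415 nm (excitation 328 nm) reports Gly-Leu cleavage of 4 μM quenched methoxycoumarin peptide substrate I. Human recombinant MMP-13, activated by trypsin or APMA, was incubated at room temperature with varied inhibitor concentrations in pH 7.5 Tris/NaCl/CaCl2 buffer; IC50 derived from reduced fluorescence.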

Human recombinant MMP-2 = biological target: T4, Human recombinant MMP-2 (Homo sapiens, UniProt P08253)
T4 construct: made in house; host or cells: MMP-2-transfected p2AHT2 cells
T4 sequence (P08253 110-660): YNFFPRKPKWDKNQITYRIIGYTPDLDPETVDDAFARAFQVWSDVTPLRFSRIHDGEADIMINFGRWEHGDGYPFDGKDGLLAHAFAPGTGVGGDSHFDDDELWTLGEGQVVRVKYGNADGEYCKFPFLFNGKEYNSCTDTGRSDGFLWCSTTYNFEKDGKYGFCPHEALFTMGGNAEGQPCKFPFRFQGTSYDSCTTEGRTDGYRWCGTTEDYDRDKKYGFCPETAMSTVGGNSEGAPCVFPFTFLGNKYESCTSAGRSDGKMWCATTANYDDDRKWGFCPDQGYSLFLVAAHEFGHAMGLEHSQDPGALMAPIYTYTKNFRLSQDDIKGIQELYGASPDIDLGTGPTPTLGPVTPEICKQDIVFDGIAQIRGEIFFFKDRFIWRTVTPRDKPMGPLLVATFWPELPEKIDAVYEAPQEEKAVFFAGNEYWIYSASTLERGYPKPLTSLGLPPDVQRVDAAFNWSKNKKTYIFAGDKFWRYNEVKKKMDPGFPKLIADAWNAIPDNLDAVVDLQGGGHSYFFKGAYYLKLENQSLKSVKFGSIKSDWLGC
Procedure, shortened: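 APMA- or trypsin-activated recombinant MMP-2 was incubated at room temperature with serial inhibitor dilutions in Tris buffer pH 7.5 (100 mM NaCl, 10 mM CaCl2, 0.05% Brij), with DMSO from 1% stocks, and 4 μM substrate I. Cleavage was read by fluorescence at 328/415 nm; IC50 was taken from the loss of fluorescence versus inhibitor concentration.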

Human recombinant MMP-14 = biological target: T5, Human recombinant MMP-14 (Homo sapiens, UniProt P50281)
T5 construct: The catalytic domain enzyme was expressed in E. coli inclusion bodies, solubilized in urea; made in house
Protocol: as §1, §2
The MMP-14 full length cDNA was provided by Dr. Gregory Goldberg of Washington University (St. Louis, Mo.). The catalytic domain enzyme was expressed in E. coli inclusion bodies, solubilized in urea, purified on a preparative […] reverse phase HPLC column, and then refolded in the presence of zinc acetate and purified for use.
as §3, §4, §5, §6, §7, §8

T1 sequence (P14780 107-707 limits assumed): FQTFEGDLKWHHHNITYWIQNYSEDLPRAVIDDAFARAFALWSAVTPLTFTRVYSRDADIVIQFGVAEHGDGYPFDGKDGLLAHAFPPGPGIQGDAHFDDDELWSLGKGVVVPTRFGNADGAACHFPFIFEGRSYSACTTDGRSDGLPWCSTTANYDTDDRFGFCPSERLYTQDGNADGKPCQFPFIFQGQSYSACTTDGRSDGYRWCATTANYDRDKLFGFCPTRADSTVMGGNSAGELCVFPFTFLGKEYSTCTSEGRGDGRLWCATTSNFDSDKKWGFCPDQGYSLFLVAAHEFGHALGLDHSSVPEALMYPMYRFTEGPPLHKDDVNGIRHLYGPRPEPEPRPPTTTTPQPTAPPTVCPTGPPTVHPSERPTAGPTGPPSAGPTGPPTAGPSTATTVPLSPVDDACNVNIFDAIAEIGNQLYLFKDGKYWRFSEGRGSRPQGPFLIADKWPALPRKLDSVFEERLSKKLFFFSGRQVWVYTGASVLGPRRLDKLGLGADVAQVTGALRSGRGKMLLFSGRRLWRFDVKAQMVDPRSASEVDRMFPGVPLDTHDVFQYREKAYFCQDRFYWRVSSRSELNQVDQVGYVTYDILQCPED

Row | Compound | IC50 (Human recombinant MMP-9) [nM] | IC50 (Human recombinant MMP-1) [nM] | IC50 (Human recombinant MMP-13) [nM] | IC50 (Human recombinant MMP-2) [nM] | IC50 (Human recombinant MMP-14) [nM]
1 | Cc1cc(-c2cccc(CCOc3ccc(S(=O)(=O)C4(C(=O)NO)CCOCC4)cc3)c2)ccc1F [Example 120] | > 10000 | > 10000 | 5.8 | 1170 | > 10000
2 | O=C(NO)C1(S(=O)(=O)c2ccc(OCCc3cccc(-c4ccc(F)c(F)c4)c3)cc2)CCOCC1 [Example 122] | 7670 | > 10000 | 1.9 | 760 | > 10000
3 | COCCN1CCC(C(=O)NO)(S(=O)(=O)c2ccc(OCCCn3nnc(-c4ccc(SC)cc4)n3)cc2)CC1 [Example 130] | 50.2 | 4610 | 0.3 | 4.7 | 500
4 | CCN1CCC(C(=O)NO)(S(=O)(=O)c2ccc(OCCCc3cccc(-c4ccc(F)cc4)c3)cc2)CC1 [Example 138] | 1900 | > 10000 | 2.1 | 247 | > 10000
5 | O=C1CN(c2ccc(OC(F)(F)F)cc2)C(=O)N1CCCOc1ccc(S(=O)(=O)C2(C(=O)NO)CCOCC2)cc1 [Example 144] | 5990 | > 10000 | 2.5 | 239 | > 10000
6 | COc1ccc(C(=O)C(O)CCOc2ccc(S(=O)(=O)C3(C(=O)NO)CCOCC3)cc2)cc1 (centres unmarked) [Example 184] | 104 | 1530 | 3.9 | 30.4 | 2720

The next lines start with the values.

Row | IC50 (Human recombinant MMP-9) [nM] | IC50 (Human recombinant MMP-1) [nM] | IC50 (Human recombinant MMP-13) [nM] | IC50 (Human recombinant MMP-2) [nM] | IC50 (Human recombinant MMP-14) [nM] | Compound
7 | 7690 | > 10000 | 9.7 | 1370 | > 10000 | CC(C)C[C@@H]1C(=O)N(CCCOc2ccc(S(=O)(=O)C3(C(=O)NO)CCOCC3)cc2)C(=O)N1c1ccccc1 [Example 105]
8 | > 10000 | > 10000 | 3.5 | 1050 | > 10000 | CC[C@@H]1C(=O)N(CCCOc2ccc(S(=O)(=O)C3(C(=O)NO)CCOCC3)cc2)C(=O)N1c1ccccc1 [Example 106]
9 | > 10000 | > 10000 | 7.7 | 2380 | > 10000 | CC(C)[C@H]1C(=O)N(CCCOc2ccc(S(=O)(=O)C3(C(=O)NO)CCOCC3)cc2)C(=O)N1c1ccccc1 [Example 134]
10 | 9440 | > 10000 | 2 | 817 | > 10000 | C[C@@H]1C(=O)N(CCCOc2ccc(S(=O)(=O)C3(C(=O)NO)CCOCC3)cc2)C(=O)N1c1ccccc1 [Example 145]
